Counter-ions that a name gives are not always drawn. Like-named read-outs stand apart in the source and are kept apart here.

The text below walks through data of patent US20120172359A1 (NOVARTIS AG, priority 2010, published 2012).

In assay [1] the target is Human BACE-1 (Homo sapiens, UniProt P56817). The assay is described as follows: Test 1: Inhibition of Human BACE-1. It counts as biochemical.
The subject of assay [2] is cellular release of amyloid peptide 1-40. The assay is described as follows: Test 4: Inhibition of Cellular Release of Amyloid Peptide 1-40. It counts as cell-based. As to conditions: Cricetulus griseus, Chinese hamster ovary cells transfected with the gene for amyloid precursor protein, 24 hours with test compound, amyloid peptide 1-40 in supernatant, read-out: Bace IC50. The method, then: Test 4: Inhibition of Cellular Release of Amyloid Peptide 1-40
Chinese hamster ovary cells are transfected with the gene for amyloid precursor protein. The cells are plated at a density of 8000 cells/well into 96-well microtiter plates and cultivated for 24 hours in DMEM cell culture medium containing 10% FCS. The test compound is added to the cells at various concentrations, and the cells are cultivated for 24 hours in the presence of the test compound. The supernatants are collected, and the concentration of amyloid peptide 1-40 is determined using state of the art immunoassay techniques, for example sandwich ELISA, homogenous time-resolved fluorescence (HTRF) immunoassay, or electro-chemiluminescence immunoassay.

Setting [3] is: Test 1, recombinant BACE-1 (extracellular domain), acetate buffer pH 4.5, 1 hour with test compound at room temperature, fluorescence-quenched peptide substrate, read-out: Bace IC50.

Sequence of Human BACE-1 (P56817 46-457 limits assumed): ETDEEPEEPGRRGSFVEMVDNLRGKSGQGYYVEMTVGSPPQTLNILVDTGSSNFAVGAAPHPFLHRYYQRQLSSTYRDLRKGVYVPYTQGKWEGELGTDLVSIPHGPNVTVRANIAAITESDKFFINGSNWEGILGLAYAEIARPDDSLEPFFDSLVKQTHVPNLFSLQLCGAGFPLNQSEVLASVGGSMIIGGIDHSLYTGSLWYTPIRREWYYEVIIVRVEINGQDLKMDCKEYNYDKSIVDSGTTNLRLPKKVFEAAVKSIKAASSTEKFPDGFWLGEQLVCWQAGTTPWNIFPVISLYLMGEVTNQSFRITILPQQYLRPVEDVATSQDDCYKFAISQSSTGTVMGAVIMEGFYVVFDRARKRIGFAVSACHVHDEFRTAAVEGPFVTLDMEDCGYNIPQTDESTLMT

Usually IC50 stands for the concentration that gives 50% inhibition. `Cl.[2H]c1nc(C(=O)Nc2ccc(F)c([C@]3(C(F)F)COCC(N)=N3)c2)c(C([2H])([2H])[2H])c([2H])c1Br` [Example 116, 5-Bromo-4,6-dideutero-3-trideuteromethyl-pyridine-2-carboxylic acid [3-((R)-5-amino-3-difluoromethyl-3,6-dihydro-2H-[1,4]oxazin-3-yl)-4-fluoro-phenyl]-amide hydrochloride]: the IC50 is 18 nM in assay [1] (setting [3]) and 4 nM in assay [2].
Turning to `NC1=N[C@@](c2cc(NC(=O)c3cn4ccccc4n3)ccc2F)(C(F)F)COC1` [Example 129, Imidazo[1,2-a]pyridine-2-carboxylic acid [3-((R)-5-amino-3-difluoromethyl-3,6-dihydro-2H-[1,4]oxazin-3-yl)-4-fluoro-phenyl]-amide hydrochloride], the IC50 in assay [1] (setting [3]) stood at 2200 nM; in assay [2] it was 1200 nM.
For `Cc1ccn(-c2cnc(C(=O)Nc3cccc(C4(C)COCC(N)=N4)c3)cn2)n1` (stereo not shown) [Example 16, 5-(3-Methyl-pyrazol-1-yl)-pyrazine-2-carboxylic acid [3-(5-amino-3-methyl-3,6-dihydro-2H-[1,4]oxazin-3-yl)-phenyl]-amide], the IC50 in assay [1] (setting [3]) came out at 9200 nM; in assay [2], 3100 nM.
The corresponding values for `C[C@@]1(c2cc(Br)cc(NC(=O)c3ccc(C(F)(F)F)cn3)c2)COCC(N)=N1` [Example 54, 5-Trifluoromethyl-pyridine-2-carboxylic acid [3-((R)-5-amino-3-methyl-3,6-dihydro-2H-[1,4]oxazin-3-yl)-5-bromo-phenyl]-amide] are 440 nM and 61 nM.
Regarding `C[C@@]1(c2cc(NC(=O)c3ncc(Br)cn3)ccc2F)CO[C@@](C)(C(F)(F)F)C(N)=N1` [Example 71, 5-Bromo-pyrimidine-2-carboxylic acid [3-((3R,6R)-5-amino-3,6-dimethyl-6-trifluoromethyl-3,6-dihydro-2H-[1,4]oxazin-3-yl)-4-fluoro-phenyl]-amide hydrochloride], the half-maximal inhibitory concentration (IC50) in assay [1] came out at 16 nM; in assay [2], 4 nM.
